Values quoted from earlier work in US20030153801A1, “Compositions of cyclooxygenase-2 selective inhibitors and radiation for inhibition or prevention of cardiovascular disease” (Pharmacia Corporation, priority 2001, published 2003).

How the values were obtained:
[1] = single dose pretreatment, intravenous, before coronary stenting
[2] = tested on: vascular smooth muscle cells; conditions: in vitro
restenosis = conditions: orally administered; stent implanted pig arteries
[3] = tested on: coronary intimal proliferation; conditions: oral administration; swine model of restenosis

In the case of `C[C@H]1C[C@@H]2[C@H]([C@@H](O)C[C@@]3(C)[C@H]2CC[C@]3(O)C(=O)CO)[C@@]2(C)C=CC(=O)C=C12` [methylpridnisolone], the “change in minimal lumen diameter at 6 months” value [1] is given as “no effect”.
For `COc1cc(/C=C/C(=O)CC(=O)/C=C/c2ccc(O)c(OC)c2)ccc1O` [curcumin], the “proliferation of vascular smooth muscle cells” value [2] is listed as “reduced”.
For `COc1ccc(C=CC(=O)Nc2ccccc2C(=O)O)cc1OC` [tranilast, N-(3,4-dimethoxycinnamoyl) anthranilic acid], the rate of restenosis (restenosis) is given as “lower”.
For `CN(C)CCCO[C@@H]1[C@H]2OC(C)(C)O[C@H]2O[C@@H]1[C@H](O)CO.Cl` [aniprilose hydrochloride], the coronary intimal proliferation [3] is listed as “did not prevent”.
